Results taken from ChEMBL document CHEMBL1201862, “PubChem BioAssay data set” (2004).
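Dose response: 5 concentrations. Exposure: 48 h. Format: 96-well plates. Endpoint: linear interpolation; highest concentration if not reached. The concentration for 50% growth inhibition is given as GI50.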 Active and inactive are the calls of the source. Cut-off read from the data, not from the text of the source: active = GI50 up to about 1.1 µM and inactive = higher.

Experiments:
Experiment in all cases: inhibition of tumour cell growth, NCI panel, 48 h
[1] = system: UACC-257
[2] = system: HCT-116
[3] = system: A549
[4] = system: HOP-92
[5] = system: KM12
[6] = system: NCI-H23
[7] = system: ACHN
[8] = system: MDA-MB-231
[9] = system: SF-268
[10] = system: RXF 393
[11] = system: SK-MEL-2
[12] = system: RPMI-8226
[13] = system: SF-539
[14] = system: SW-620
[15] = system: A498
[16] = system: DU-145
[17] = system: OVCAR-3
[18] = system: OVCAR-5
[19] = system: MOLT-4
[20] = system: HOP-62

Measured: GI50

CC(C)OC1OC(CO)C(O)CC1n1cc(F)c(=O)[nH]c1=O (stereo unspecified)
inactive: [1] > 100 µM | [2] > 100 µM | [3] > 100 µM | [4] > 100 µM | [5] > 100 µM | [6] > 100 µM | [7] > 100 µM | [8] > 100 µM | [9] 59.3 µM | [10] 47.5 µM | [11] > 100 µM | [12] 39.4 µM | [13] > 100 µM | [14] 30.9 µM | [15] > 100 µM | [16] > 100 µM | [17] > 100 µM | [18] > 100 µM

Cc1cc(=O)c2ccccc2n1CCCCCCCCCCn1c(C)cc(=O)c2ccccc21
inactive: [1] 11.7 µM | [2] 8.09 µM | [3] 20 µM | [4] 22.4 µM | [5] 15.9 µM | [19] 8.69 µM | [6] 3.94 µM | [7] 25.2 µM | [8] 29.5 µM | [9] 30.2 µM | [20] > 100 µM | [10] 26.1 µM | [11] > 10 µM | [13] 25.8 µM | [14] 20.4 µM | [15] 15.1 µM | [16] 14 µM | [17] 37.3 µM | [18] > 100 µM

C[C@]12CCC(O)CC1=CC[C@@H]1[C@@H]2CC[C@]2(C)C(=O)[C@H](n3ccnc3)C[C@@H]12 (stereo partly specified)
inactive: [1] 40.4 µM | [2] 54.5 µM | [3] 91.4 µM | [4] > 100 µM | [5] 38.9 µM | [19] 17.9 µM | [6] 33.8 µM | [7] > 100 µM | [8] > 100 µM | [9] > 100 µM | [10] > 100 µM | [11] 27 µM | [12] 21.2 µM | [13] 58.6 µM | [14] > 100 µM | [15] > 100 µM | [16] > 100 µM | [17] > 100 µM | [18] > 100 µM

O=C1CC(=O)c2c(Cl)sc(Cl)c21
inactive: [1] > 100 µM | [2] > 100 µM | [3] 87.1 µM | [4] > 100 µM | [5] > 100 µM | [19] 34.1 µM | [6] 51.6 µM | [7] > 100 µM | [8] > 100 µM | [9] 64.7 µM | [20] > 100 µM | [10] 16.1 µM | [11] > 100 µM | [13] > 100 µM | [14] 91 µM | [15] > 100 µM | [16] > 100 µM | [17] 86.5 µM | [18] > 100 µM

C=CC[C@H](N=C(SC)SC)C(=O)N1C(=O)N(C)[C@@H](C)[C@H]1c1ccccc1
inactive: [1] 29.2 µM | [2] 33 µM | [3] 35.3 µM | [4] 23.3 µM | [5] 36.2 µM | [19] 26.4 µM | [6] 39.3 µM | [7] 49.4 µM | [8] > 100 µM | [9] 26.5 µM | [20] 46.5 µM | [10] 33.8 µM | [11] 30 µM | [13] 36.4 µM | [14] 30.1 µM | [15] 56.8 µM | [16] 37.5 µM | [17] 29.4 µM | [18] 54.6 µM

C[N+](C)(C)c1ccc(C(N)C(=O)O)cc1 (stereo unspecified)
inactive: [1] > 100 µM | [2] > 100 µM | [4] > 100 µM | [5] > 100 µM | [6] > 100 µM | [7] > 100 µM | [8] > 100 µM | [9] > 100 µM | [20] > 100 µM | [10] > 100 µM | [11] > 100 µM | [12] > 100 µM | [14] > 100 µM | [15] > 100 µM | [16] > 100 µM | [17] > 100 µM | [18] > 100 µM
